Patent publication US20140221340A1 (KYOWA HAKKO KIRIN CO., LTD., priority 2011, published 2014)

Target: T1, human CCR10 (Homo sapiens, UniProt P46092)
T1 construct: expressed in transfected cells; host or cells: KJMGER8 cell (cell line derived from Namalwa cell); expression induced with 10 nmol/L β-estradiol
T1 sequence (P46092 1-362): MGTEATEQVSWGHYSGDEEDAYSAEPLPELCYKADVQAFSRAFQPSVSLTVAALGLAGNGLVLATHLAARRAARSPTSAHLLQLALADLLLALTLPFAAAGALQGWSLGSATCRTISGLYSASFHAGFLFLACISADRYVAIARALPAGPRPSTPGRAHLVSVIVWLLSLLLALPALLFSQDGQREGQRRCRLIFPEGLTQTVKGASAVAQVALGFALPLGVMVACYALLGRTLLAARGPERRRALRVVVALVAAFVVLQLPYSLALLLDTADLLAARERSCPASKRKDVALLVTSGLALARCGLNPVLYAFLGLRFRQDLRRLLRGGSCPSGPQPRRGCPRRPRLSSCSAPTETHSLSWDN
Test: Calcium assay of human CCR10 (inhibition of CTACK-induced increase in intracellular calcium ion concentration in hCCR10G16 cells)
Format: cell-based
Details: test compound 100 nmol/L; human recombinant CTACK; hCCR10G16 cells (KJMGER8/Namalwa-derived, Gα16 co-expressed); FLIPR or FDSS; read-out: Inhibitory rate (%) for an increase in calcium ion concentration
Method: A CCR10-inducible expression plasmid was produced according to a known method (“Analytical Biochemistry”, 2006, vol. 400, page 163). A DNA encoding human CCR10 was obtained by PCR. Using human chromosomal DNA (100 ng; manufactured by Clontech Laboratories, Inc.) as a template, a synthetic DNA having the sequences shown by SEQ ID NOs: 1 and 2 as a human CCR10 cDNA specific primer, and Pyrobest DNA Polymerase (manufactured by TAKARA SHUZO CO. LTD.) as an enzyme, a DNA encoding human CCR10 was obtained by PCR. As a buffer solution for PCR, the buffer solution attached to the enzyme was diluted 10-fold with deionized water and used. Using Thermal Cycler DNA Engine (manufactured by MJ Research), PCR was performed by 35 cycles of reactions composed of an incubation at 90° C. for 2 min, at 94° C. for 30 seconds, at an anneal temperature of 58° C. for 30 seconds, and at 72° C. for 1 min.
The amplified PCR fragment was cleaved with HindIII and NotI, then a human CCR10 DNA fragment was recovered by an agarose gel electrophoresis method. The fragment was incorporated in between the corresponding restriction enzyme sites (HindIII-NotI) of an inducible expression vector, whereby a human CCR10-inducible expression plasmid were prepared.
Using a primer specific to the sequence of the plasmid (synthetic DNA having the sequences shown by SEQ ID NOs: 3 and 4), the sequence of human CCR10 DNA region was determined. For the determination of the base sequence, DNA sequencer 377 (manufactured by PerkinElmer) and a reaction kit (ABI Prism (registered trade mark) BigDye (registered trade mark) Terminator Cycle Sequencing Ready Reaction kit: manufactured by Applied Biosystems) were used. The sequence of human CCR10 DNA matched with the sequence (NM_016602) registered in GenBank.
Cells for the detection of the signal from human CCR10 by a calcium assay were prepared. Human CCR10-inducible expressing cells whose host cell is KJMGER8 cell (cell line derived from Namalwa cell) were prepared according to a known method (“Analy Biochem”, 2006, vol. 400, page 163). Human CCR10-inducible expression plasmid produced above and Gα16 expression plasmid were co-transfected into KJMGER8 cell by an electroporation method (“Cytotechnology”, 1990, vol. 3, page 133), whereby a signal from human CCR10 could be detected by a calcium assay (hereinafter to be referred to as hCCR10G16 cell). Gα16 expression plasmid was produced by incorporating human Gα16 DNA into expression vector pAMoh (WO03/087366). Induced expression of human CCR10 was performed by cultivating hCCR10G16 cells in the presence of 10 nmol/L β-estradiol (manufactured by Sigma Ltd.) for 24 hr.
Cells expressing human CCR10 induced by the above-mentioned method were suspended in RPMI1640 medium and adjusted to cell density of 1.25×10^6 cells/mL. This mixture was dispensed to a 384 well clear bottom plate (manufactured by Corning Incorporated) at 20 μL/well, and these were incubated at 37° C. for several dozen minutes. A loading buffer prepared according to the protocol attached to FLIPR Calcium 3 assay kit (manufactured by Molecular Device) was dispensed to this plate at 20 μL/well, and the plate was incubated at 37° C. for 60 min. A 33 μmol/L DMSO solution of the test compound was diluted 37-fold with RPMI1640 medium and the resulting solution was added at 5 μL/well, and the mixture was incubated at 37° C. for 30 min. 300 nmol/L human recombinant CTACK (manufactured by R and D Systems) diluted with RPMI1640 medium containing 1 w/v % bovine serum albumin was added at 5 μL/well. Change of the intracellular calcium ion concentration for about 5 min after the addition was measured by FLIPR (manufactured by Molecular Device) or FDSS (manufactured by Hamamatsu Photonics K.K.). The difference between the maximum fluorescence intensity and the minimum fluorescence intensity for 5 min was calculated, and taken as the measurement value (maximum fluorescence intensity−minimum fluorescence intensity). […]

Row | SMILES | inhibition at 0.1 µM
1 | Cc1cc(F)ccc1Nc1c(C(=O)N2CCC(c3ccccc3)CC2)cnc2c(S(=O)(=O)NC(=O)C3CC3)cnn12 [a-1, N-[7-(4-Fluoro-2-methylphenylamino)-6-(4-phenylpiperidine-1-carbonyl)pyrazolo[1,5-a]pyrimidin-3-ylsulfonyl]cyclopropanecarboxamide] | 93.4%
2 | CCNS(=O)(=O)c1cnn2c(Nc3ccc(F)cc3C)c(C(=O)N3CCC(c4ccccc4)CC3)cnc12 [a-2, N-Ethyl-7-(4-fluoro-2-methylphenylamino)-6-(4-phenylpiperidine-1-carbonyl)pyrazolo[1,5-a]pyrimidine-3-sulfonamide] | > 100%
3 | CCNS(=O)(=O)c1cnn2c(Nc3ccc(F)cc3C)c(C(=O)N3CCC(c4ccc(F)cc4)CC3)cnc12 [a-3, N-Ethyl-7-(4-fluoro-2-methylphenylamino)-6-[4-(4-fluorophenyl)piperidine-1-carbonyl]pyrazolo[1,5-a]pyrimidine-3-sulfonamide] | > 100%
4 | Cc1cc(F)ccc1Nc1c(C(=O)N2CCC(c3ccc(F)cc3)CC2)cnc2c(S(=O)(=O)NCC(F)(F)F)cnn12 [a-4, 7-(4-Fluoro-2-methylphenylamino)-6-[4-(4-fluorophenyl)piperidine-1-carbonyl]-N-(2,2,2-trifluoroethyl)pyrazolo[1,5-a]pyrimidine-3-sulfonamide] | > 100%
5 | Cc1cc(F)ccc1Nc1c(C(=O)N2CCC(c3ccc(F)cc3)CC2)cnc2c(S(=O)(=O)NC3CC3)cnn12 [a-5, N-Cyclopropyl-7-(4-fluoro-2-methylphenylamino)-6-[4-(4-fluorophenyl)piperidine-1-carbonyl]pyrazolo[1,5-a]pyrimidine-3-sulfonamide] | > 100%
6 | O=C(NS(=O)(=O)c1cnn2c(Nc3ccccc3Cl)c(C(=O)N3CCC(c4ccccc4)CC3)cnc12)C1CC1 [a-6, N-[7-(2-Chlorophenylamino)-6-(4-phenylpiperidine-1-carbonyl)pyrazolo[1,5-a]pyrimidin-3-ylsulfonyl]cyclopropanecarboxamide] | 98.9%
7 | CCNC(=O)NS(=O)(=O)c1cnn2c(Nc3ccccc3Cl)c(C(=O)N3CCC(c4ccccc4)CC3)cnc12 [a-7, 7-(2-Chlorophenylamino)-N-(ethylcarbamoyl)-6-(4-phenylpiperidine-1-carbonyl)pyrazolo[1,5-a]pyrimidine-3-sulfonamide] | 92.4%
8 | COC(=O)NS(=O)(=O)c1cnn2c(Nc3ccccc3Cl)c(C(=O)N3CCC(c4ccccc4)CC3)cnc12 [a-8, Methyl 7-(2-chlorophenylamino)-6-(4-phenylpiperidine-1-carbonyl)pyrazolo[1,5-a]pyrimidin-3-ylsulfonylcarbamate] | 99.6%
9 | O=C(NS(=O)(=O)c1cnn2c(Nc3ccccc3Cl)c(C(=O)N3CCC(c4ccc(F)cc4)CC3)cnc12)C1CC1 [a-9, N-{7-(2-Chlorophenylamino)-6-[4-(4-fluorophenyl)piperidine-1-carbonyl]pyrazolo[1,5-a]pyrimidin-3-ylsulfonyl}cyclopropanecarboxamide] | 80.6%
10 | CCNC(=O)NS(=O)(=O)c1cnn2c(Nc3ccccc3Cl)c(C(=O)N3CCC(c4ccc(F)cc4)CC3)cnc12 [a-10, 7-(2-Chlorophenylamino)-N-(ethylcarbamoyl)-6-[4-(4-fluorophenyl)piperidine-1-carbonyl]pyrazolo[1,5-a]pyrimidine-3-sulfonamide] | > 100%
11 | COCCNS(=O)(=O)c1cnn2c(Nc3ccccc3Cl)c(C(=O)N3CCC(c4ccc(F)cc4)CC3)cnc12 [a-11, 7-(2-Chlorophenylamino)-6-[4-(4-fluorophenyl)piperidine-1-carbonyl]-N-(2-methoxyethyl)pyrazolo[1,5-a]pyrimidine-3-sulfonamide] | 28.9%
12 | Cc1ccc(Cl)c(Nc2c(C(=O)N3CCC(c4ccc(F)cc4)CC3)cnc3c(S(=O)(=O)NC(=O)C4CC4)cnn23)c1 [a-12, N-{7-(2-Chloro-5-methylphenylamino)-6-[4-(4-fluorophenyl)piperidine-1-carbonyl]pyrazolo[1,5-a]pyrimidin-3-ylsulfonyl}cyclopropanecarboxamide] | > 100%
13 | CCC(=O)NS(=O)(=O)c1cnn2c(Nc3cc(C)ccc3Cl)c(C(=O)N3CCC(c4ccc(F)cc4)CC3)cnc12 [a-13, N-{7-(2-Chloro-5-methylphenylamino)-6-[4-(4-fluorophenyl)piperidine-1-carbonyl]pyrazolo[1,5-a]pyrimidin-3-ylsulfonyl}ethanecarboxamide] | > 100%
14 | CCNC(=O)NS(=O)(=O)c1cnn2c(Nc3cc(C)ccc3Cl)c(C(=O)N3CCC(c4ccc(F)cc4)CC3)cnc12 [a-14, 7-(2-Chloro-5-methylphenylamino)-N-(ethylcarbamoyl)-6-[4-(4-fluorophenyl)piperidine-1-carbonyl]pyrazolo[1,5-a]pyrimidine-3-sulfonamide] | > 100%
15 | CCNS(=O)(=O)c1cnn2c(Nc3cc(C)ccc3Cl)c(C(=O)N3CCC(c4ccc(F)cc4)CC3)cnc12 [a-15, N-Ethyl-7-(2-chloro-5-methylphenylamino)-6-[4-(4-fluorophenyl)piperidine-1-carbonyl]pyrazolo[1,5-a]pyrimidine-3-sulfonamide] | 87.8%
16 | CCNS(=O)(=O)c1cnn2c(Nc3ccc(Cl)cc3C)c(C(=O)N3CCC(c4ccc(F)cc4)CC3)cnc12 [a-16, N-Ethyl-7-(4-chloro-2-methylphenylamino)-6-[4-(4-fluorophenyl)piperidine-1-carbonyl]pyrazolo[1,5-a]pyrimidine-3-sulfonamide] | > 100%
17 | CC(=O)NS(=O)(=O)c1cnn2c(Nc3ccc(F)cc3C)c(C(=O)N3CCC(c4ccccc4)CC3)cnc12 [a-17, N-[7-(4-Fluoro-2-methylphenylamino)-6-(4-phenylpiperidine-1-carbonyl)pyrazolo[1,5-a]pyrimidin-3-ylsulfonyl]acetamide] | > 100%
18 | CCC(=O)NS(=O)(=O)c1cnn2c(Nc3ccc(C)cc3Cl)c(C(=O)N3CCC(c4ccc(F)cc4)CC3)cnc12 [a-18, N-{7-(2-Chloro-4-methylphenylamino)-6-[4-(4-fluorophenyl)piperidine-1-carbonyl]pyrazolo[1,5-a]pyrimidin-3-ylsulfonyl}propionamide] | 98.3%
19 | CCC(=O)NS(=O)(=O)c1cnn2c(Nc3ccc(Cl)cc3Cl)c(C(=O)N3CCC(c4ccc(F)cc4)CC3)cnc12 [a-19, N-{7-(2,4-Dichlorophenylamino)-6-[4-(4-fluorophenyl)piperidine-1-carbonyl]pyrazolo[1,5-a]pyrimidin-3-ylsulfonyl}propionamide] | 97%
20 | CCNC(=O)NS(=O)(=O)c1cnn2c(Nc3ccc(Cl)cc3Cl)c(C(=O)N3CCC(c4ccc(F)cc4)CC3)cnc12 [a-20, 7-(2,4-Dichlorophenylamino)-N-(ethylcarbamoyl)-6-[4-(4-fluorophenyl)piperidine-1-carbonyl]pyrazolo[1,5-a]pyrimidine-3-sulfonamide] | 90.7%
